# Measured values taken from ChEMBL document CHEMBL6103573, “Discovery of novel thienopyridine indole derivatives as inhibitors of tubulin polymerization targeting the colchicine-binding site with potent anticancer activities” (Eur J Med Chem, 2025).
# The source made the active and inactive calls. The calls are words filed in the database; no cut-off is given here.
# How the values were obtained:
# HCT-116 = test: Antiproliferative activity against human HCT-116 cells assessed as inhibition of cell proliferation incubated for 48 hrs by MTT assay; format: functional, cell-based; conditions: HCT-116, 48 h
# MCF7 = test: Antiproliferative activity against human MCF7 cells assessed as inhibition of cell proliferation incubated for 48 hrs by MTT assay; format: functional, cell-based; conditions: MCF7, 48 h
# [1] = Cytotoxicity against human GES1 cells assessed as inhibition of cell proliferation incubated for 48 hrs by MTT assay; format: toxicity, cell-based
# HGC-27 [2] = test: Antiproliferative activity against human HGC-27 cells assessed as cell viability at 0.5 to 2 nmol/L incubated for 48 hrs by MTT assay (reference value: 86 %); format: functional; conditions: dose 0.5-2 nmol/L, at 0.5 to 2 nM
# Tubulin = test: Inhibition of tubulin (unknown origin) polymerization assessed as decrease in fluorescence intensity in presence of GTP by fluorescence microplate reader; format: protein-complex assay, Homo sapiens
# Tubulin (Homo sapiens) = Tubulin (Homo sapiens) (UniProt P68371+Q9H4B7+P0DPH7+P68366+Q13509+Q71U36+P04350+Q3ZCM7+P07437+P68363+Q9BQE3+Q6PEY2+Q13885+Q9BVA1+Q9BUF5); test: Disruption of microtubule network in human MGC-803 cells assessed as reduction in filamentous microtubule structure formation at 0.25 to 2.0 nmol/L incubated for 24 hrs by DAPI staining based fluorescence microscopic analysis; format: cell-based; conditions: dose 0.25-2 nmol/L
# HGC-27 [3] = test: Inhibition of colony formation in human HGC-27 cells at 0.5 nmol/L incubated for 7 days by crystal violet staining based colony formation assay relative to control; format: functional; conditions: HGC-27, 168 h, time 7 day
# HGC-27 [4] = test: Inhibition of colony formation in human HGC-27 cells incubated for 7 days by crystal violet staining based colony formation assay; format: functional, cell-based; conditions: dose 0.1-0.5 nmol/L, time 7.0 day
# MGC-803 [5] = test: Induction of cell cycle arrest in human MGC-803 cells assessed as accumulation of cells at G2/M phase incubated for 24 hrs by RNase A/propidium iodide staining based flow cytometric analysis; format: functional; conditions: dose 0.25-2 nmol/L
# HGC-27 [6] = test: Induction of cell cycle arrest in human HGC-27 cells assessed as accumulation of cells at G2/M phase incubated for 24 hrs by RNase A/propidium iodide staining based flow cytometric analysis; format: functional; conditions: dose 0.25-2 nmol/L
# MGC-803 [7] = test: Induction of cell cycle arrest in human MGC-803 cells assessed as accumulation of cells at G2/M phase at 2 nmol/L incubated for 24 hrs by RNase A/propidium iodide staining based flow cytometric analysis relative to control; format: functional
# HGC-27 [8] = test: Induction of cell cycle arrest in human HGC-27 cells assessed as accumulation of cells at G2/M phase at 2 nmol/L incubated for 24 hrs by RNase A/propidium iodide staining based flow cytometric analysis relative to control; format: functional
# HGC-27 [9] = test: Induction of cell cycle arrest in human HGC-27 cells assessed as downregulation of Cdc2 phosphorylation at Tyr15 residue measured after 48 hrs by Western blot analysis; format: functional, cell-based; conditions: dose 0.25-2 nmol/L
# HGC-27 [10] = test: Induction of cell cycle arrest in human HGC-27 cells assessed as downregulation of Cdc25c level measured after 48 hrs by Western blot analysis; format: functional, cell-based; conditions: dose 0.25-2 nmol/L
# HGC-27 [11] = test: Induction of cell cycle arrest at G2 phase in human HGC-27 cells assessed as downregulation of Cyclin B1 level at 0.25 to 2.0 nmol/L measured after 48 hrs by Western blot analysis; format: functional, cell-based; conditions: dose 0.25-2 nmol/L
# MGC-803 [12] = test: Induction of cell cycle arrest at G2 phase in human MGC-803 cells assessed as downregulation of Cyclin B1 level at 0.25 to 2.0 nmol/L measured after 48 hrs by Western blot analysis; format: functional, cell-based; conditions: dose 0.25-2 nmol/L
# MGC-803 [13] = test: Induction of apoptosis in human MGC-803 cells assessed as cell contraction at 0.25 to 2.0 nmol/L incubated for 48 hrs by bright field microscopic analysis; format: functional, cell-based; conditions: dose 0.25-2 nmol/L
# MGC-803 [14] = test: Induction of apoptosis in human MGC-803 cells assessed as appearance of round cells at 0.25 to 2.0 nmol/L incubated for 48 hrs by bright field microscopic analysis; format: functional, cell-based; conditions: dose 0.25-2 nmol/L
# HGC-27 [15] = test: Induction of apoptosis in human HGC-27 cells assessed as appearance of round cells at 0.25 to 2.0 nmol/L incubated for 48 hrs by bright field microscopic analysis; format: functional, cell-based; conditions: dose 0.25-2 nmol/L
# HGC-27 [16] = test: Induction of apoptosis in human HGC-27 cells assessed as increase in nuclei brightness at 0.25 to 2.0 nmol/L incubated for 48 hrs by DAPI staining based analysis; format: functional, cell-based; conditions: dose 0.25-2 nmol/L
# MGC-803 [17] = test: Induction of apoptosis in human MGC-803 cells assessed as downregulation of Bcl-2 expression incubated for 48 hrs by Western blotting analysis; format: functional, cell-based; conditions: dose 0.25-2 nmol/L
# HGC-27 [18] = test: Induction of apoptosis in human HGC-27 cells assessed as downregulation of Bcl-2 expression incubated for 48 hrs by Western blotting analysis; format: functional, cell-based; conditions: dose 0.25-2 nmol/L
# HGC-27 [19] = test: Induction of apoptosis in human HGC-27 cells assessed as increase in cleaved Caspase-7 expression at 0.25 to 2.0 nmol/L incubated for 48 hrs by Western blotting analysis; format: functional, cell-based; conditions: dose 0.25-2 nmol/L
# MGC-803 [20] = test: Induction of apoptosis in human MGC-803 cells assessed as increase in cleaved PARP expression at 0.25 to 2.0 nmol/L incubated for 48 hrs by Western blotting analysis; format: functional, cell-based; conditions: dose 0.25-2 nmol/L
# MGC-803 [21] = test: Induction of apoptosis in human MGC-803 cells assessed as late apoptotic cells at 0.5 nmol/L incubated for 48 hrs by Annexin V-FITC/propidium iodide staining based flow cytometry analysis (reference value: 2.22 %); format: functional
# MGC-803 [22] = test: Induction of apoptosis in human MGC-803 cells assessed as early apoptotic cells at 1.0 nmol/L incubated for 48 hrs by Annexin V-FITC/propidium iodide staining based flow cytometry analysis (reference value: 0.83 %); format: functional
# MGC-803 [23] = test: Induction of apoptosis in human MGC-803 cells assessed as early apoptotic cells at 1.5 nmol/L incubated for 48 hrs by Annexin V-FITC/propidium iodide staining based flow cytometry analysis (reference value: 0.83 %); format: functional
# HGC-27 [24] = test: Induction of apoptosis in human HGC-27 cells assessed as late apoptotic cells at 1.0 nmol/L incubated for 48 hrs by Annexin V-FITC/propidium iodide staining based flow cytometry analysis (reference value: 3.70 %); format: functional
# HGC-27 [25] = test: Induction of apoptosis in human HGC-27 cells assessed as late apoptotic cells at 2.0 nmol/L incubated for 48 hrs by Annexin V-FITC/propidium iodide staining based flow cytometry analysis (reference value: 3.70 %); format: functional
# HUVEC [26] = test: Anti-migratory activity against HUVEC cells assessed as wound healing rate at 2.0 nmol/L measured after 24 hrs by wound healing assay (reference value: 97 %); format: functional, Homo sapiens
# HUVEC [27] = test: Anti-vascular activity in HUVEC cells assessed as reduction in width of tubular network incubated for 5 hrs by Matrigel based inverted microscopic analysis; format: functional, cell-based; conditions: Homo sapiens, dose 0.5-2 nmol/L
# HUVEC [28] = test: Anti-vascular activity in HUVEC cells assessed as reduction in length of tubular network incubated for 5 hrs by Matrigel based inverted microscopic analysis; format: functional, cell-based; conditions: Homo sapiens, dose 0.5-2 nmol/L
# [29] = Toxicity in female BALB/c-nu nude mouse xenografted with human MGC-803 cells assessed as change in spleen morphology at 5 mg/kg, po administrated every other day for 11 times and measured after 21 days by hematoxylin and eosin staining based analysis; format: organism-based; conditions: in vivo, 504 h, time 21 day
# [30] = Toxicity in female BALB/c-nu nude mouse xenografted with human MGC-803 cells assessed as change in kidney morphology at 5 mg/kg, po administrated every other day for 11 times and measured after 21 days by hematoxylin and eosin staining based analysis; format: organism-based; conditions: in vivo, 504 h, time 21 day
smiles,measurement,setting,value
CN(c1ccc2c(ccn2C)c1)c1nc(N2CCCC2)nc2sccc12,IC50,HCT-116,2.89 nM
same,IC50,MCF7,1.85 nM
same,IC50 at 48 h,[1],31.1 nM
same,Activity,HGC-27 [2],38%
same,IC50,Tubulin,2510 nM
same,Activity,Tubulin (Homo sapiens),Active
same,inhibition at 0.0005 µM,HGC-27 [3],> 90%
same,inhibition,HGC-27 [4],Dose-dependent-effect
same,Activity,MGC-803 [5],Dose-dependent-effect
same,Activity,HGC-27 [6],Dose-dependent-effect
same,Activity,MGC-803 [7],28.5%
same,Activity,HGC-27 [8],43.9%
same,Activity,HGC-27 [9],Dose-dependent-effect
same,Activity,HGC-27 [10],Dose-dependent-effect
same,Activity,HGC-27 [11],Active
same,Activity,MGC-803 [12],Active
same,Activity,MGC-803 [13],Active
same,Activity,MGC-803 [14],Active
same,Activity,HGC-27 [15],Active
same,Activity,HGC-27 [16],Active
same,Activity,MGC-803 [17],Dose-dependent-effect
same,Activity,HGC-27 [18],Dose-dependent-effect
same,Activity,HGC-27 [19],Active
same,Activity,MGC-803 [20],Active
same,Activity,MGC-803 [21],2.84%
same,Activity,MGC-803 [22],16.83%
same,Activity,MGC-803 [23],43.09%
same,Activity,HGC-27 [24],3.98%
same,Activity,HGC-27 [25],5.64%
same,Activity,HUVEC [26],44%
same,Activity,HUVEC [27],Dose-dependent-effect
same,Activity,HUVEC [28],Dose-dependent-effect
same,Activity,[29],Non-toxic
same,Activity,[30],Non-toxic
